The values below come from US20200239530A1, “COMPOUNDS AND METHODS OF MODULATING PROTEIN DEGRADATION” (Vividion Therapeutics, Inc., priority 2017, published 2020).

Where two headings read alike, the source gives them in different places.

Holding throughout (assay): Cysteine liganding, probe competition
Holding throughout (format): binding

The target in experiment [1] is T1, UniProt O96028 (Homo sapiens, UniProt O96028).
T1 construct: Cells were resuspended in cold PBS on ice and sonicated with a probe sonicator to achieve lysis; endogenous in cells
To be noted: 500 uM. An excerpt: (§1) The following 96-well sample prep protocol was used for sample preparation.

The target in experiment [2] is T2, UniProt P78317 (Homo sapiens, UniProt P78317).
T2 construct: 200 μL of lysate containing 5 mg/ml proteome was treated with 2 μL of 100× compound stock; endogenous in cells
Description: as §1

Experiment [3] deals with T3, UniProt Q495X7 (Homo sapiens, UniProt Q495X7).
T3 construct: 200 μL of lysate containing 5 mg/ml proteome was treated with 2 μL of 100× compound stock; endogenous in cells
T3 sequence (Q495X7 1-471): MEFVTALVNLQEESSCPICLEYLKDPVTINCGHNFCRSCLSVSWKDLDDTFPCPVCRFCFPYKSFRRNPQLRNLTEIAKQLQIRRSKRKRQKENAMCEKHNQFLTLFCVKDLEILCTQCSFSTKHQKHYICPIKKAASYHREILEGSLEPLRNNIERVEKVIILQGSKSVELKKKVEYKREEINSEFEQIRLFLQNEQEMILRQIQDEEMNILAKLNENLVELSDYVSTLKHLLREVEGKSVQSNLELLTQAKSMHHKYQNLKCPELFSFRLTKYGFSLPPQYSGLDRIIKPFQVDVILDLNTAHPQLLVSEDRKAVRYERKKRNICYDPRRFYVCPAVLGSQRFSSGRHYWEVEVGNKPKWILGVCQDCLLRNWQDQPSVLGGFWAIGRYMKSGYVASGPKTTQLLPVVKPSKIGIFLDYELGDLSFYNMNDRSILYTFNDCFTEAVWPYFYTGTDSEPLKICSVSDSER
Description: as §1

Experiment [4] has as its target T4, UniProt Q9H992 (Homo sapiens, UniProt Q9H992).
T4 construct: Cells were resuspended in cold PBS on ice and sonicated with a probe sonicator to achieve lysis; endogenous in cells
Description: as §1

Experiment [5] concerns the target T5, UniProt Q9HCE7 (Homo sapiens, UniProt Q9HCE7).
T5 construct: 200 μL of lysate containing 5 mg/ml proteome was treated with 2 μL of 100× compound stock; endogenous in cells
Description: as §1

Experiment [6] addresses T6, UniProt O94972 (Homo sapiens, UniProt O94972).
T6 construct: 200 μL of lysate containing 5 mg/ml proteome was treated with 2 μL of 100× compound stock; endogenous in cells
Description: as §1

The target of experiment [7] is T7, UniProt Q8WV22 (Homo sapiens, UniProt Q8WV22).
T7 construct: Cells were resuspended in cold PBS on ice and sonicated with a probe sonicator to achieve lysis; endogenous in cells
T7 sequence (Q8WV22 1-266): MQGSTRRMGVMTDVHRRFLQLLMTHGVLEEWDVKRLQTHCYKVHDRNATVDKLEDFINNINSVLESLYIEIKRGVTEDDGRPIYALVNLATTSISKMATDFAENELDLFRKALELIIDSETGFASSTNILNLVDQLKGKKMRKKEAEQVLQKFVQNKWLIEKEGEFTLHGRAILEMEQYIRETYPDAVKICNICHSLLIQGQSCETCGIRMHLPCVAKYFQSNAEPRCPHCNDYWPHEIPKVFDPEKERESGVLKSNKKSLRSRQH
Description: as §1

In experiment [8] the target is T8, UniProt Q9BR09 (Homo sapiens, UniProt Q9BR09).
T8 construct: Cells were resuspended in cold PBS on ice and sonicated with a probe sonicator to achieve lysis; endogenous in cells
To be noted: read-out: percent inhibition.
Description: as §1

Experiment [9] concerns the target T9, UniProt Q9BWF2 (Homo sapiens, UniProt Q9BWF2).
T9 construct: 200 μL of lysate containing 5 mg/ml proteome was treated with 2 μL of 100× compound stock; endogenous in cells
T9 sequence (Q9BWF2 1-469): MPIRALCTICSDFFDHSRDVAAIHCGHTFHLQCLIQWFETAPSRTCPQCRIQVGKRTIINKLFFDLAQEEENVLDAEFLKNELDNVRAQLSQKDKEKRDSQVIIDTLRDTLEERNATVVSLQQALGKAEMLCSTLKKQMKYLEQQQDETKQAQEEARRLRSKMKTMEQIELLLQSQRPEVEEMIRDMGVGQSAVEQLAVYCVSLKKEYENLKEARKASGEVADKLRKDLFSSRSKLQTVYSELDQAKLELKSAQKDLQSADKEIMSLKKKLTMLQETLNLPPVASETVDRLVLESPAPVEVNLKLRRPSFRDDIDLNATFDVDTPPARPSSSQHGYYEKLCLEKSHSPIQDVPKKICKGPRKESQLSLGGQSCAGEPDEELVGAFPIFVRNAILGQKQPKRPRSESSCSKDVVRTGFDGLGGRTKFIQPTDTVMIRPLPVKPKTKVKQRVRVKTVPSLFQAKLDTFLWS
Description: as §1

The target of experiment [10] is T10, UniProt Q6VVB1 (Homo sapiens, UniProt Q6VVB1).
T10 construct: Cells were resuspended in cold PBS on ice and sonicated with a probe sonicator to achieve lysis; endogenous in cells
Description: as §1

The target of experiment [11] is T11, UniProt O15151 (Homo sapiens, UniProt O15151).
T11 construct: Cells were resuspended in cold PBS on ice and sonicated with a probe sonicator to achieve lysis; endogenous in cells
T11 sequence (O15151 1-490): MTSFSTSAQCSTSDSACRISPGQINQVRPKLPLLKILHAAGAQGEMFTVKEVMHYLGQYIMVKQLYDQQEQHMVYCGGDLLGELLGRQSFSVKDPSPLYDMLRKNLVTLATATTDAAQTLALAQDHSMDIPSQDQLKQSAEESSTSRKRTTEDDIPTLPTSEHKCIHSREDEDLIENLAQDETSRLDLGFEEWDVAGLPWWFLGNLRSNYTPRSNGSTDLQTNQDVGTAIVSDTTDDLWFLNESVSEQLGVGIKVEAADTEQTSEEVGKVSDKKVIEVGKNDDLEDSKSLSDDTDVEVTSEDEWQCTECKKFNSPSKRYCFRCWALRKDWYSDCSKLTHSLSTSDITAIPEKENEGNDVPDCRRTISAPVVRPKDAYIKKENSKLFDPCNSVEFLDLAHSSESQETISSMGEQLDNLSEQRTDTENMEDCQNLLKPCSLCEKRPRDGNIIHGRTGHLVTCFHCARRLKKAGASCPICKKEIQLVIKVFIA
The settings on record: for inhibition at 500 µM: read-out: percent inhibition.
Description: as §1

Experiment [12] concerns the target T12, UniProt O60683 (Homo sapiens, UniProt O60683).
T12 construct: 200 μL of lysate containing 5 mg/ml proteome was treated with 2 μL of 100× compound stock; endogenous in cells
Description: as §1

Setting [13] is: 100 uM, read-out: KB02_100 uM_percent_inhibition.
[14] abbreviates: 500 uM, read-out: KB02_500 uM_percent_inhibition.
Setting [15] is: read-out: KB05_100 uM_percent_inhibition.
Where [16] appears, read: 500 uM, read-out: KB05_500 uM_percent_inhibition.

T4 sequence (Q9H992 whole entry, change not shown): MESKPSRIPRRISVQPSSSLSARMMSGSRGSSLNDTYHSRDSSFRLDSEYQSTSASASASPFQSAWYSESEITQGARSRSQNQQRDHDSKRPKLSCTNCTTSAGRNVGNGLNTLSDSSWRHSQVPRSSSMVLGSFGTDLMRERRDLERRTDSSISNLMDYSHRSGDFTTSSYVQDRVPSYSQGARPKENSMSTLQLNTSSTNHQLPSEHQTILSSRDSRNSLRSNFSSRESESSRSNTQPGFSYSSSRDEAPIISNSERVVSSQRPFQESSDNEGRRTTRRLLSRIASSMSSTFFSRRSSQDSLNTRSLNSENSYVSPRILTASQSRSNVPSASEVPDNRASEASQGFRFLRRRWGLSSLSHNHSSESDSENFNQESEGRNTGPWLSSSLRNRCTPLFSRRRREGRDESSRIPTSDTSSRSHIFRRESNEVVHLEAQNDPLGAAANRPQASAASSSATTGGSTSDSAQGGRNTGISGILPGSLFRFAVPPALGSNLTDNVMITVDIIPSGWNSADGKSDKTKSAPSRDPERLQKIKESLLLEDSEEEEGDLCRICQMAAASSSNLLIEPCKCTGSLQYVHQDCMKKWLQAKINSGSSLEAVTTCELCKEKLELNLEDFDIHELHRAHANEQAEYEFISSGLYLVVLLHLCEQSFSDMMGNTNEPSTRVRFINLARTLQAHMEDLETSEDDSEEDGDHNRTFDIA
T10 sequence (Q6VVB1 whole entry, change not shown): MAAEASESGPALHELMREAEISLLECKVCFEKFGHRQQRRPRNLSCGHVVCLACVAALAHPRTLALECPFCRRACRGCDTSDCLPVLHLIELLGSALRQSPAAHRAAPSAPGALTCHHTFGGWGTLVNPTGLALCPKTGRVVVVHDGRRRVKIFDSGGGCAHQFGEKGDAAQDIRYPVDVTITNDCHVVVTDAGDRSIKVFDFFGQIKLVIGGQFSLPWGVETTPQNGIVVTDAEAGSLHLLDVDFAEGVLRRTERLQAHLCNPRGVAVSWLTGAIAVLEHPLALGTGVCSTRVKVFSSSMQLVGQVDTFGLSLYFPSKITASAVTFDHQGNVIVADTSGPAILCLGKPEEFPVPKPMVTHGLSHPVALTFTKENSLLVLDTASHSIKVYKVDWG
T6 sequence (O94972 whole entry, change not shown): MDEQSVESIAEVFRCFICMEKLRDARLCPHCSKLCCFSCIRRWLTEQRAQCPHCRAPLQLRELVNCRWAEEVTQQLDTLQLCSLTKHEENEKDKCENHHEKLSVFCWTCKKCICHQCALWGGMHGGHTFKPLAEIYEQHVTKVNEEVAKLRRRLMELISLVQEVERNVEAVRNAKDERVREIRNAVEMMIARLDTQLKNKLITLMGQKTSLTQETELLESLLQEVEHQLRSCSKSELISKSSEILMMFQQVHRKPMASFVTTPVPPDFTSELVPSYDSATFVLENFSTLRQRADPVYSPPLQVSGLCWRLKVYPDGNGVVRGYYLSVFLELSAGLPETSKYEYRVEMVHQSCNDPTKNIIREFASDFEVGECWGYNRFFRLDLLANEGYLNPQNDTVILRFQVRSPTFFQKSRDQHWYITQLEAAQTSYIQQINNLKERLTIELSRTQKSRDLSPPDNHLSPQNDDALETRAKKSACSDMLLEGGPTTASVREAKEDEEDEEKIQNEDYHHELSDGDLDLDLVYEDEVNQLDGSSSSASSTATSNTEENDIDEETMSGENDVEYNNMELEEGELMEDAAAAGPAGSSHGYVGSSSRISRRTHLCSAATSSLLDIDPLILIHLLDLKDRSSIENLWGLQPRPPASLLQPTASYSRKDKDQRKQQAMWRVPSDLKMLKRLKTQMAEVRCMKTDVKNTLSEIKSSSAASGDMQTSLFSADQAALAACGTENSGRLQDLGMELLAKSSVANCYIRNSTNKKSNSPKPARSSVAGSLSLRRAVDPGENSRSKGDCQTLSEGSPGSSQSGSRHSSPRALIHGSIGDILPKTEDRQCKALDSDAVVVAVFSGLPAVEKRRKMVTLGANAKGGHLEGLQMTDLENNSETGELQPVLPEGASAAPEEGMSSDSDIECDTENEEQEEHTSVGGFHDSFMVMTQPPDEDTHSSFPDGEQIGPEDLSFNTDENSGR
T8 sequence (Q9BR09 whole entry, change not shown): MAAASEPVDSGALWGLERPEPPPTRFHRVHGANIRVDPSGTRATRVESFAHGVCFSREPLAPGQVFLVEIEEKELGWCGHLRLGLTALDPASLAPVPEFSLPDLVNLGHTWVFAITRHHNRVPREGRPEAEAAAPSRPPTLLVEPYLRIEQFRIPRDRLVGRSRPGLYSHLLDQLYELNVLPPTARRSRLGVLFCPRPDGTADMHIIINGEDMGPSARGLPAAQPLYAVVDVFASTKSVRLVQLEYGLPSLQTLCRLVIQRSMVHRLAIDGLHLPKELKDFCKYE
T5 sequence (Q9HCE7 whole entry, change not shown): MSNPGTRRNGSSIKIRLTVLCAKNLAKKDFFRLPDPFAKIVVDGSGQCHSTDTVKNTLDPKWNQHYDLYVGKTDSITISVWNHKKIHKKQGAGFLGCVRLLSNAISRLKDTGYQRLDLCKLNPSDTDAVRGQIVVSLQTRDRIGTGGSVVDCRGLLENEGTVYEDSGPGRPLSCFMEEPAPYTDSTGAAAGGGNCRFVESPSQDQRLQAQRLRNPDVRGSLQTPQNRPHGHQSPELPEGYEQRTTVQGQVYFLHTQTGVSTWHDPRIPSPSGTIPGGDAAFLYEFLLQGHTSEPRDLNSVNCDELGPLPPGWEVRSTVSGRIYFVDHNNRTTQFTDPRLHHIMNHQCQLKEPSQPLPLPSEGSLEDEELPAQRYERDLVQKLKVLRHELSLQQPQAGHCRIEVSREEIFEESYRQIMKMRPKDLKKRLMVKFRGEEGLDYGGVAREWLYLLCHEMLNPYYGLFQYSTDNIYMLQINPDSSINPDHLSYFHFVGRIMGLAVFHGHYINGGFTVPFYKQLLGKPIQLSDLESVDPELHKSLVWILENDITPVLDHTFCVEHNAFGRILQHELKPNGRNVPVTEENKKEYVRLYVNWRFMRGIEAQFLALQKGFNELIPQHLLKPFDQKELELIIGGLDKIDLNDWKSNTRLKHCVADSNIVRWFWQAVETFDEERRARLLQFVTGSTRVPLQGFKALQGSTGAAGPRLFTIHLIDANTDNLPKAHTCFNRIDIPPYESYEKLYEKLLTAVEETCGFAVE
T12 sequence (O60683 whole entry, change not shown): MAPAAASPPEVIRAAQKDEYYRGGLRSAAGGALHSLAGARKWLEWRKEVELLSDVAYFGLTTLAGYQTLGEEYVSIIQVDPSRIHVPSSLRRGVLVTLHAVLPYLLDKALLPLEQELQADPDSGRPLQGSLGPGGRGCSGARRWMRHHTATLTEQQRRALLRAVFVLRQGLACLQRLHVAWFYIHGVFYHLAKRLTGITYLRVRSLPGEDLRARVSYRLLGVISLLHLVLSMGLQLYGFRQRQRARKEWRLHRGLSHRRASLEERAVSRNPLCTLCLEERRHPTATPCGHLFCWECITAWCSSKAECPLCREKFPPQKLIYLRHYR
T1 sequence (O96028 whole entry, change not shown): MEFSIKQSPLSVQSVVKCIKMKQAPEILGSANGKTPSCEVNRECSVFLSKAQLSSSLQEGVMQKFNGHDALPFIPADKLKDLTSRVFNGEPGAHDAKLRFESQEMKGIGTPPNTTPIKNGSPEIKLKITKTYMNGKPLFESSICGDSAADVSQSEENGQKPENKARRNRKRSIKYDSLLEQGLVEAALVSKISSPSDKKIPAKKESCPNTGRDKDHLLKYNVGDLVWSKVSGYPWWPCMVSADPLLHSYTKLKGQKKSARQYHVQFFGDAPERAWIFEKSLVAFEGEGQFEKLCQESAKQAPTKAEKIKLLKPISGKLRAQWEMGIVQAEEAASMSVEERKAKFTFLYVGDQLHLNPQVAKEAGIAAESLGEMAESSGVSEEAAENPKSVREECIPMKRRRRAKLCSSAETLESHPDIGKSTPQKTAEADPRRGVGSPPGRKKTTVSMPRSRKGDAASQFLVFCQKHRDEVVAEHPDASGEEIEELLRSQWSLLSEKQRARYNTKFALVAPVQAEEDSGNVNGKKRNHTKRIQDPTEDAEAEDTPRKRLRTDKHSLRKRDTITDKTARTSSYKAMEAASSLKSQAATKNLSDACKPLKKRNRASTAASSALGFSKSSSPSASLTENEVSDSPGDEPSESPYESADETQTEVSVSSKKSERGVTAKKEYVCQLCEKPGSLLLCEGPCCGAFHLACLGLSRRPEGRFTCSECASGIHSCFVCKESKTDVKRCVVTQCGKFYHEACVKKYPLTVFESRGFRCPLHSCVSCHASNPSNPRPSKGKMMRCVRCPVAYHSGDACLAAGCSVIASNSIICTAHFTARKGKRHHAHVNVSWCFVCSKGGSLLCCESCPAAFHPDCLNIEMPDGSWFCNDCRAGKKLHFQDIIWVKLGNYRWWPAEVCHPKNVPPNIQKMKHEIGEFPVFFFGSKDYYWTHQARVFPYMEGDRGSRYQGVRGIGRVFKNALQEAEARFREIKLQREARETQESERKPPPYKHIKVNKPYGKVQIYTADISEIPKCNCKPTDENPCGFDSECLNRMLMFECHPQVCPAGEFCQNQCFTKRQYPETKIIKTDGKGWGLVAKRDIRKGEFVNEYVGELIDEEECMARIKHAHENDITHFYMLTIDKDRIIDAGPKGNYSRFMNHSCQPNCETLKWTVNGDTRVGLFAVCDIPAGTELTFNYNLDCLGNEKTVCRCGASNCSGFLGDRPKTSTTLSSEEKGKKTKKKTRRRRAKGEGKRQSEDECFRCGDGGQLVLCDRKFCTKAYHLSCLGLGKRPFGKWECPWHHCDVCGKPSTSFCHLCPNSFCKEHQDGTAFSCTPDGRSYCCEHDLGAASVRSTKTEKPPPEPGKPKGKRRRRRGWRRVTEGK
T2 sequence (P78317 whole entry, change not shown): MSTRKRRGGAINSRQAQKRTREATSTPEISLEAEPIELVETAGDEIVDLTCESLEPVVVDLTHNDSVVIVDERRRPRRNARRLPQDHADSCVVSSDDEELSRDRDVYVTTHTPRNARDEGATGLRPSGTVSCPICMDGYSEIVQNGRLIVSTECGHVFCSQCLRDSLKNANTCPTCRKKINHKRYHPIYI

As to `O=C(CCl)Nc1cc(C(F)(F)F)cc(C(F)(F)F)c1` [KBO3], the “KB03_500 uM_percent_inhibition” value in [1] stood at 78%; in experiment [3] (500 uM), 43%. Further, the values for the percent_inhibition in [2] (100 uM) and in experiment [5] (100 uM) were 16% and 71%, respectively. Moreover, the “KB03_100 uM_percent_inhibition” value is on record as 27% in experiment [3] (100 uM), 36% in experiment [6] (100 uM) and 2% in [7] (100 uM). In experiment [4] (100 uM), this compound had a percent inhibition of 82%.

With `COc1ccc2c(c1)CCCN2C(=O)CCl` [KB02], the inhibition at 100 µM in experiment [3] (setting [13]) was found to be 15%; in experiment [9] (setting [13]) it was 10%; in experiment [12] (read-out: KB02_100 uM_percent_inhibition), 51%. Moreover, the inhibition at 500 µM turned out to be 44% in experiment [3] (setting [14]); 32% in experiment [8]; 36% in experiment [9] (setting [14]); 9% in experiment [10] (read-out: KB02_500 uM_percent_inhibition); 29% in experiment [11]. Besides, the “KB02_500 uM_percent_inhibition” value in experiment [9] (500 uM) is 52%.

`C=CC(=O)N(c1ccccc1)c1ccc(Br)cc1` [KB05]: the entries for the “KB05_500 uM_percent_inhibition” value in experiment [1], in experiment [9] (500 uM) and in experiment [7] (500 uM) were 79%, 29% and 66%, respectively. Moreover, the inhibition at 500 µM came to 24% in [2] (500 uM, read-out: percent_inhibition); 3% in experiment [8]; 22% in experiment [9] (setting [16]); 15% in [10] (read-out: KB05_500 uM_percent_inhibition); 55% in experiment [11]; 64% in experiment [7] (setting [16]). For the same compound, the inhibition at 100 µM amounted to 21% in experiment [4] (read-out: percent inhibition); 52% in [5] (read-out: percent_inhibition); 18% in experiment [6] (setting [15]); 37% in experiment [12] (setting [15]); 13% in experiment [7] (100 uM, read-out: KB05_100 uM_percent_inhibition). The compound further gave a percent inhibition in [11] (500 uM) of 41%.
